Values of other authors in patent publication US20130281394A1, “Chemosensory Receptor Ligand-Based Therapies” (ELCELYX THERAPEUTICS, INC., priority 2010, published 2013).
Marks after values point to notes of the source that are not given here.

biological target: T1, sweet receptor (Homo sapiens, UniProt Q7RTX0+Q8TE23); conditions: relative sweetness on a weight comparison basis to sucrose (= 1.0); ranges: varied with the concentration of sucrose
T1 sequence (Q8TE23 20-839): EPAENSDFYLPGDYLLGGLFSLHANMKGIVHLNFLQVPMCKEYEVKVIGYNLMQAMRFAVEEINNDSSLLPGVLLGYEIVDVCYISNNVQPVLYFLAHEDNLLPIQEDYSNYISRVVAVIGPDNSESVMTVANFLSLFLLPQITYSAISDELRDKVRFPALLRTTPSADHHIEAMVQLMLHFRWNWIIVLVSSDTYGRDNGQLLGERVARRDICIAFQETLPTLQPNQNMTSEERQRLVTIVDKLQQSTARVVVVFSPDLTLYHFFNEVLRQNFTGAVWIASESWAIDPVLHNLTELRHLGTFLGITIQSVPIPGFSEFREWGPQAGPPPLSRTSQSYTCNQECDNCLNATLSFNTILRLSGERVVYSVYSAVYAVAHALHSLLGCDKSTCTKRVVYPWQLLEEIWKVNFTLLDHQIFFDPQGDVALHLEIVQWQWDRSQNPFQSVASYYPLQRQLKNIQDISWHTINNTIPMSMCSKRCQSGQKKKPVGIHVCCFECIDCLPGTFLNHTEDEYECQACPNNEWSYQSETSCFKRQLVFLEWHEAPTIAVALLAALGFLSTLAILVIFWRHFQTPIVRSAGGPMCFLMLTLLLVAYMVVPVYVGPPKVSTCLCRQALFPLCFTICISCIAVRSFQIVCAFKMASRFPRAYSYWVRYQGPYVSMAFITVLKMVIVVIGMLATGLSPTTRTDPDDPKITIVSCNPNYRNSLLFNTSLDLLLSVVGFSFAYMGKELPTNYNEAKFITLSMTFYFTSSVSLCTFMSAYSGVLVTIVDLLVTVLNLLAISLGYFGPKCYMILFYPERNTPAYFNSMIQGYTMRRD
T1 sequence (Q7RTX0 21-852): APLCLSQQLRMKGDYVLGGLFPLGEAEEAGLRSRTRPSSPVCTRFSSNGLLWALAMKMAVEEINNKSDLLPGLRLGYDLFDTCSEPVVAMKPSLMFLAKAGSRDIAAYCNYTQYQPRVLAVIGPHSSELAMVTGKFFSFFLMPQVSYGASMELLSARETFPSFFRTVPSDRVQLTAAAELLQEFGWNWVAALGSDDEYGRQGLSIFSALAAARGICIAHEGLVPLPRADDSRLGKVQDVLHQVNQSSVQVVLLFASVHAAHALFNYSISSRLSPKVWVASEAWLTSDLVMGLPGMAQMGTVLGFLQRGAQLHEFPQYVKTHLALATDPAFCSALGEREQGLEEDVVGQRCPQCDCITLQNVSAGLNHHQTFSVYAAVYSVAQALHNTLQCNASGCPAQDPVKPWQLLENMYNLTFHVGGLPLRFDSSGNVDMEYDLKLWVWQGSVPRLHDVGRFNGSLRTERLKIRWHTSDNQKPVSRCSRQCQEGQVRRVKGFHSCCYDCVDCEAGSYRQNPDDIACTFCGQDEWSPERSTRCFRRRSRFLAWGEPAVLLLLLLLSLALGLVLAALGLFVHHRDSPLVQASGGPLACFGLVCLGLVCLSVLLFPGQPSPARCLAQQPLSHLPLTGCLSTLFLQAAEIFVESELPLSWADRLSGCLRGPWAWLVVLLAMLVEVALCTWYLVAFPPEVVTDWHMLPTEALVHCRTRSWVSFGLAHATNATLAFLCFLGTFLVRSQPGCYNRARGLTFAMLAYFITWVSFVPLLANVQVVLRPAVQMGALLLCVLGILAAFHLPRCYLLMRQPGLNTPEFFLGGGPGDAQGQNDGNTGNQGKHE

| Compound | Sweetness/potency |
| --- | --- |
| 4β,11α-Dimethyl-1,2,3,4,5,10-hexahydro-fluorene-4α,6α-dicarboxylic acid | 1,300-1,800^d |
| COc1c(O)cc2c(c1O)C(=O)[C@H](OC(C)=O)[C@@H](c1ccc(O)c(O)c1)O2 [(2R,3R)-2,3-Dihydro-5,7,3′,4′-tetrahydroxy-6-methoxy-3-O-acetylflavonol] | 25 |
| COc1c(O)cc2c(c1O)C(=O)[C@H](O)[C@@H](c1ccc(O)c(O)c1)O2 [(2R,3R)-2,3-Dihydro-5,7,3′,4′-tetrahydroxy-6-methoxyflavonol] | 15 |
| COc1c(O)cc2c(c1O)C(=O)[C@H](OC(C)=O)[C@@H](c1ccc(O)cc1)O2 [(2R,3R)-2,3-Dihydro-5,7,4′-trihydroxy-6-methoxy-3-O-acetylflavonol] | 20 |
| CC(=O)O[C@H]1C(=O)c2c(O)cc(O)cc2O[C@@H]1c1ccc(O)c(O)c1 [(2R,3R)-Dihydroquercetin 3-O-acetate] | 80 |
| CC(C)=CCC[C@](C)(O)[C@@H]1CCC(C)=CC1=O [(+)-Hernandulcin] | 1,500 |
| CC1=CC[C@@H]([C@@H](C)[C@H]2CC[C@@]3(C)[C@@H]4CC[C@H]5[C@](C)(C(=O)O)[C@@H](O[C@@H]6O[C@H](CO)[C@@H](O)[C@H](O)[C@H]6O)CC[C@@]56C[C@@]46CC[C@]23C)OC1=O [Abrusoside A] | 30 |
| COC(=O)[C@H]1O[C@@H](O[C@H]2[C@H](O[C@H]3CC[C@]45C[C@]46CC[C@]4(C)[C@@H]([C@H](C)[C@@H]7CC=C(C)C(=O)O7)CC[C@@]4(C)[C@@H]6CC[C@H]5[C@]3(C)C(=O)O)O[C@H](CO)[C@@H](O)[C@@H]2O)[C@H](O)[C@@H](O)[C@@H]1O [Abrusoside B] | 100 |
| CC1=CC[C@@H]([C@@H](C)[C@H]2CC[C@@]3(C)[C@@H]4CC[C@H]5[C@](C)(C(=O)O)[C@@H](O[C@@H]6O[C@H](CO)[C@@H](O)[C@H](O)[C@H]6O[C@@H]6O[C@H](CO)[C@@H](O)[C@H](O)[C@H]6O)CC[C@@]56C[C@@]46CC[C@]23C)OC1=O [Abrusoside C] | 50 |
| CC1=CC[C@@H]([C@@H](C)[C@H]2CC[C@@]3(C)[C@@H]4CC[C@H]5[C@](C)(C(=O)O)[C@@H](O[C@@H]6O[C@H](CO)[C@@H](O)[C@H](O)[C@H]6O[C@@H]6O[C@H](C(=O)O)[C@@H](O)[C@H](O)[C@H]6O)CC[C@@]56C[C@@]46CC[C@]23C)OC1=O [Abrusoside D] | 75 |
| CC1(C)C[C@H]2C3=CC[C@@H]4[C@@]5(C)CC[C@H](O[C@@H]6O[C@H](CO[C@@H]7OC[C@H](O)[C@H](O)[C@H]7O[C@@H]7OC[C@@H](O)[C@H](O)[C@H]7O)[C@@H](O)[C@H](O)[C@H]6O)C(C)(C)[C@@H]5CC[C@@]4(C)[C@]3(C)C[C@@H](O)[C@@]23C[C@@H]1OC3=O [Albiziasaponin A] | 5 |
| CC1(C(=O)O)CCC2(C)CCC3(C)C(=CC(=O)C4C5(C)CCC(OC6OC(C(=O)O)C(O)C(O)C6OC6OCC(O)(CO)C6O)C(C)(C)C5CCC43C)C2C1 (stereo not drawn) [Apioglycyrrhizin] | 300 |
| CC1(C)[C@@H](O[C@H]2O[C@H](C(=O)O)[C@@H](O)[C@H](O)[C@H]2O[C@@H]2OC[C@H](O)[C@H](O)[C@H]2O)CC[C@]2(C)[C@H]3C(=O)C=C4[C@@H]5C[C@@](C)(C(=O)O)CC[C@]5(C)CC[C@@]4(C)[C@]3(C)CC[C@@H]12 [Araboglycyrrhizin] | 150 |
| C/C(=C\CC[C@@H](C)[C@H]1CC[C@@]2(C)[C@@H]3CC=C4[C@@H](CC[C@H](O[C@@H]5O[C@H](CO)[C@@H](O)[C@H](O)[C@H]5O)C4(C)C)[C@]3(C)[C@H](O)C[C@]12C)CO[C@@H]1O[C@H](CO[C@@H]2O[C@H](CO)[C@@H](O)[C@H](O)[C@H]2O)[C@@H](O)[C@H](O)[C@H]1O [Carnosifloside VI] | 77 |
| COc1ccc(C2Oc3cc(O)cc(O)c3C(=O)C2OC(C)=O)cc1O (stereo not drawn) [Dihydroquercetin 3-O-acetate 4′-methyl ether] | 400 |
| C=C1C[C@@]23CC[C@H]4[C@@](C)(CCC[C@@]4(C)C(=O)O[C@@H]4O[C@H](CO)[C@@H](O)[C@H](O)[C@H]4O)[C@@H]2CC[C@]1(O[C@@H]1O[C@H](CO)[C@@H](O)[C@H](O)[C@H]1O[C@@H]1O[C@@H](C)[C@H](O)[C@@H](O)[C@H]1O)C3 [Dulcoside A] | 30 |
| C/C(=C\CO)CCC1=C(C=O)CC(OC2OCC(O)C(O)C2O)C2C(C)(CO)CCCC12C (stereo not drawn) [Gaudichaudioside A] | 55 |
| CC1(C)[C@@H](O[C@H]2O[C@H](C(=O)O)[C@@H](O)[C@H](O)[C@H]2O[C@@H]2O[C@H](C(=O)O)[C@@H](O)[C@H](O)[C@H]2O)CC[C@]2(C)[C@H]3C(=O)C=C4[C@@H]5C[C@@](C)(C(=O)O)CC[C@]5(C)CC[C@@]4(C)[C@]3(C)CC[C@@H]12 [Glycyrrhizin] | 93-170^d |
| Oc1cc2c(cc1O)[C@@H]1c3ccc(O)c(O)c3OC[C@]1(O)C2 [Hematoxylin] | 120 |
| C[C@H](CC[C@@H](O[C@@H]1O[C@H](CO)[C@@H](O)[C@H](O)[C@H]1O[C@@H]1O[C@H](CO)[C@@H](O)[C@H](O)[C@H]1O)C(C)(C)O)[C@H]1CC[C@@]2(C)[C@H]3CC=C4[C@@H](CC[C@H](O[C@@H]5O[C@H](CO[C@@H]6O[C@H](CO)[C@@H](O)[C@H](O)[C@H]6O)[C@@H](O)[C@H](O)[C@H]5O)C4(C)C)[C@]3(C)[C@H](O)C[C@]12C [Mogroside IV] | 233-392^d |
| C[C@H](CC[C@@H](O[C@@H]1O[C@H](CO[C@@H]2O[C@H](CO)[C@@H](O)[C@H](O)[C@H]2O)[C@@H](O)[C@H](O)[C@H]1O[C@@H]1O[C@H](CO)[C@@H](O)[C@H](O)[C@H]1O)C(C)(C)O)[C@H]1CC[C@@]2(C)[C@@H]3CC=C4[C@@H](CC[C@H](O[C@@H]5O[C@H](CO[C@@H]6O[C@H](CO)[C@@H](O)[C@H](O)[C@H]6O)[C@@H](O)[C@H](O)[C@H]5O)C4(C)C)[C@]3(C)[C@H](O)C[C@]12C [Mogroside V] | 250-425^d |
| N[C@@H](C[C@@](O)(Cc1c[nH]c2ccccc12)C(=O)O)C(=O)O [Monatin] | 1,200-1,400^d |
| C/C(=C\CC/C(C)=C/CO[C@@H]1O[C@H](CO)[C@@H](O)[C@H](O[C@@H]2O[C@@H](C)[C@H](O)[C@@H](O)[C@H]2O)[C@H]1O[C@@H]1O[C@@H](C)[C@H](O)[C@@H](O)[C@H]1O)CC/C=C(\C)CO[C@@H]1O[C@H](CO)[C@@H](O)[C@H](O[C@@H]2O[C@@H](C)[C@H](O)[C@@H](O)[C@H]2O)[C@H]1O[C@@H]1O[C@@H](C)[C@H](O)[C@@H](O)[C@H]1O [Mukurozioside IIb] | ca. 1 |
| C[C@@H]1O[C@@H](O[C@H]2[C@H](Oc3cc(O)c(C(=O)CCc4ccc(O)cc4)c(O)c3)O[C@H](CO)[C@@H](O)[C@@H]2O)[C@H](O)[C@H](O)[C@H]1O [Naringin dihydrochalcone] | 300 |
| COc1ccc(CCC(=O)c2c(O)cc(O[C@@H]3O[C@H](CO)[C@@H](O)[C@H](O)[C@H]3O[C@@H]3O[C@@H](C)[C@H](O)[C@@H](O)[C@H]3O)cc2O)cc1O [Neohesperidin dihydrochalcone] | 1,000 |
| C[C@@H]1O[C@@H](O[C@H]2O[C@@H]([C@@H](C)C3CC[C@@H]4[C@H]5CC(=O)[C@@H]6C[C@H](O[C@@H]7O[C@H](CO)[C@@H](O)[C@H](O)[C@H]7O[C@@H]7O[C@@H](C)[C@H](O)[C@@H](O)[C@H]7O)CC[C@]6(C)[C@@H]5CC[C@]34C)CC[C@@H]2C)[C@H](O)[C@H](O)[C@H]1O (stereo partly drawn) [Osladin] | 500 |
| CC1(C(=O)O)C=C2C3CCC4C5(CO)CCC(OC6OC(C(=O)O)C(O)C(O)C6OC6OC(C(=O)O)C(O)C(O)C6O)C(C)(C)C5CCC4(C)C3(C)CCC2(C)CC1 (stereo not drawn) [Periandrin III] | 92 |
